Source: the supplement of paper PMC4649846

Key:
MDA-MB-231 [1] = conditions: incubation time: 72 h
Experimental: (§1)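 MDA-MB-231 breast cancer cells were transfected with siBRCA1 or non-targeting siControl, then seeded 24 h later at 4000 cells/well in 384-well plates holding 198 drugs at 5 concentrations. Viability was read by CellTiter-Blue after 72 h at 37 °C. Dose-response curves were fitted in Dotmatics to give IC50 and a drug sensitivity score (DSS: area under the curve relative to the area between the 10% threshold and 100% inhibition, normalised by the log of the top response). The dose range is not stated. IC50 values of 8333.3 or 4166.7 nM mark no response (top dose), and 0.8333 nM is the lower limit.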

MDA-MB-231 [2] = experiment: drug sensitivity score (DSS); higher = more sensitive; extreme values may be limits of the assay; conditions: incubation time: 72 h
Experimental: as §1

[3] = siRNA: siControl (non-targeting)

Row | SMILES | IC50 of cell viability (MDA-MB-231 [1]; siRNA: siBRCA1) | IC50 of cell viability (MDA-MB-231 [1]; [3]) | drug sensitivity score (MDA-MB-231 [2]; siRNA: siBRCA1) | drug sensitivity score (MDA-MB-231 [2]; [3])
1 | C[C@]12O[C@H](C[C@]1(O)CO)n1c3ccccc3c3c4c(c5c6ccccc6n2c5c31)CNC4=O [Lestaurtinib] | 1400 nM | 794 nM | 8.59 | 11.3
2 | CO[C@H]1C[C@@H]2CC[C@@H](C)[C@@](O)(O2)C(=O)C(=O)N2CCCC[C@H]2C(=O)O[C@H]([C@H](C)C[C@@H]2CC[C@@H](OC(=O)C(C)(CO)CO)[C@H](OC)C2)CC(=O)[C@H](C)/C=C(\C)[C@@H](O)[C@@H](OC)C(=O)[C@H](C)C[C@H](C)/C=C/C=C/C=C/1C [Temsirolimus] | 3.9 nM | 4.02 nM | 14.6 | 14.4
3 | CC(=O)c1c(C)c2cnc(Nc3ccc(N4CCNCC4)cn3)nc2n(C2CCCC2)c1=O | 125 nM | 248 nM | 6.11 | 9.43
4 | O=C(NC[C@H](O)CO)c1ccncc1Nc1ccc(I)cc1F | 132 nM | 50 nM | 16 | 17.4
5 | CN1CCN(CCOc2cc(OC3CCOCC3)c3c(Nc4c(Cl)ccc5c4OCO5)ncnc3c2)CC1 [Saracatinib] | 652 nM | 90.5 nM | 6.55 | 10.4
6 | NC(=O)NO [Hydroxyurea] | > 4170 nM | > 4170 nM | 0 | 0
7 | Cc1ccc(C(=O)Nc2ccc(CN3CCN(C)CC3)c(C(F)(F)F)c2)cc1C#Cc1cnc2cccnn12 [Ponatinib] | 297 nM | 363 nM | 16 | 15.4
8 | O=C(c1ccc(OCCN2CCCCC2)cc1)c1c(-c2ccc(O)cc2)sc2cc(O)ccc12 [Raloxifene] | > 4170 nM | > 4170 nM | 0 | 0
9 | Cc1cc(Nc2cc(CN3CCOCC3)c3nc(C)c(Cc4ccc(Cl)cc4F)n3n2)n[nH]1 | 1380 nM | > 4170 nM | 6.15 | 3.18
10 | COc1cc2ncnc(Nc3ccc(F)c(Cl)c3)c2cc1OCCCN1CCOCC1 [Gefitinib] | > 4170 nM | > 4170 nM | 0 | 0
